Data from patent US20170105949A1, “METHOD FOR IMPROVING FEED EFFICIENCY IN RUMINANTS” (Rivalea (Australia) Pty Ltd, priority 2014, published 2017).
Counter-ions that a name gives are not always drawn.

Key:
[1] = Growth performance and feed efficiency of lambs fed pelleted test diets ad libitum (live weight, feed intake by disappearance); format: in vivo, lambs (Border Leister x Merino)
Excerpt: Lambs were used in this study as the model animal representing ruminants. Previous research has shown similar growth performance, feed efficiency and carcass benefits from the inclusion of Ractopamine in cattle and lamb diets. Given this, it is expected that the outcomes from feeding RAC and caffeine in combination to finishing lambs can be translated to expected results in other ruminants such as cattle. The surprising results found in lambs show promise for use of RAC and caffeine in other ruminants, particularly cattle where RAC is an approved animal feed additive.
(§1) A total of 36 male lambs (Border Leister x Merino) were selected at approximately 14 weeks of age and housed in pens of two lambs per pen in a naturally ventilated shed. Lambs were fed a commercial lamb finisher diet for a 14 day acclimatisation period prior to the start of the test period. In addition, all lambs were offered 250 g lucerne hay per day as roughage. At the start of the test period, lambs were individually weighed (average weight 29.8 kg±0.29 kg), ear tagged and the pen randomly allocated to one of three dietary treatments:
(§2) A: Control (no RAC or Caffeine for the entire 56 day test period)
(§3) B: RAC (20 ppm (20 g/t) RAC for the entire 56 day test period)
(§4) C: RAC +Caffeine (20 ppm (20 g/t)) RAC offered from day 0 to day 21, followed by 20 ppm (20 g/t) RAC plus 0.5 kg/t caffeine offered from day 21 to day 56).
(§5) Diets were pelleted and fed ad libitum for the entire test period, while water was also freely available at all times. In addition to the pelleted test feeds, each lamb was offered 200 g lucerne hay per day (floor fed) as an additional source of roughage.
Lambs were shorn prior to entry to the facility to minimise the impact of wool growth on rate of gain measurements and body composition analysis. Individual weights were recorded periodically throughout the test period (Days 0, 21, 35 and 56), while intake of the pelleted test diets was measured by feed disappearance and feed efficiency subsequently calculated.
No attempt was made to measure feed residues of the lucerne hay as the lambs consumed this rapidly and the volume of wastage was considered insignificant.
(§6) Data were subjected to an analysis of variance (ANOVA) for the main effect of dietary treatment. Data for treatments B and C were pooled for the initial 21 day feeding period as both treatment groups were fed the same diet during this time period. The experimental unit for all analyses was the pen of ruminant. All analyses were performed using Genstat 16th Edition (Payne RW, Harding SA, Genstat Committee 2005 Genstat release 8 reference manual, USN International: Oxford UK).

[2] = Body composition of lambs by dual energy x-ray absorptiometry (DXA) scanning; format: in vivo, lambs (Border Leister x Merino)
Excerpt: as §1, §2, §3, §4, §5
Dual energy x-ray absorptiometry (DXA) scanning was undertaken using a Hologic X-Ray Bone Densitometer (Hologic Inc, Waltham, Mass., USA) at day 21 and day 56 of the test period. All lambs were weighed on the day of scanning (prior to anaesthesia). Lambs were sedated using xylazine (administered intramuscularly) and anaesthetised with ketamine intra venously under veterinary direction. Once anaesthetised, lambs were positioned in a ventral recumbency with their hind legs extended and forelegs positioned caudally to accommodate the DXA regional analysis software. The whole body scan mode was used for each animal, with the length of the scan adjusted for the length of the lamb. Following DXA analysis, lambs were monitored by a veterinarian for full recovery from anaesthesia. As the DXA software generates body composition estimates for humans, the raw DXA output from each scan was adjusted for lambs using equations developed by comparisons with actual empty body chemical composition (Hunter 2000).
as §6

[3] = RAC 20 ppm throughout, RAC + Caffeine: 0.5 kg/t caffeine added from day 21, day 0 weight as covariate
[4] = RAC 20 ppm, RAC + Caffeine: 20 ppm RAC plus 0.5 kg/t caffeine from day 21
[5] = day 0 to day 21, 20 ppm RAC in diet, treatments B and C pooled
[6] = entire test period, RAC 20 ppm, RAC + Caffeine: caffeine 0.5 kg/t added day 21-56
[7] = DXA, RAC 20 ppm day 0-56, RAC + Caffeine: caffeine 0.5 kg/t added day 21-56, live weight day 56 as covariate
[8] = DXA, RAC treatment groups pooled, 20 ppm RAC day 0-21
[9] = DXA, both groups 20 ppm RAC day 0-21, live weight day 21 as covariate

SMILES: CC(CCc1ccc(O)cc1)NCC(O)c1ccc(O)cc1 (racemic) [RAC, Ractopamine hydrochloride]
- Live weight day 21 ([1]; 20 ppm RAC in diet day 0-21, treatments B and C pooled, day 0 weight as covariate): 37.9 kg
- Live weight Day 35 [1, 3]: 43.6 kg
- Live weight Day 56 [1, 3]: 47.3 kg
- ADFI Day 21-35 [1, 4]: 1.77 kg/day
- ADFI Day 21-56 [1, 4]: 1.82 kg/day
- ADFI Day 35-56 [1, 4]: 1.77 kg/day
- ADG Day 21-35 [1, 4]: 0.380 kg/day
- ADG Day 21-56 [1, 4]: 0.266 kg/day
- ADG Day 35-56 [1, 4]: 0.177 kg/day
- FCE Day 21-35 [1, 4]: 0.214 gain/feed
- FCE Day 21-56 [1, 4]: 0.144 gain/feed
- FCE Day 35-56 [1, 4]: 0.113 gain/feed
- ADFI [1, 5]: 1.40 kg/day
- ADG [1, 5]: 0.388 kg/day
- FCE (gain/feed) [1, 5]: 0.28 gain/feed
- ADFI Day 0-56 [1, 6]: 1.67 kg/day
- ADG Day 0-56 [1, 6]: 0.317 kg/day
- FCE Day 0-56 [1, 6]: 0.189 gain/feed
- Live weight Day 21 ([1]; three treatments, both groups 20 ppm RAC day 0-21, day 0 weight as covariate): 38.2 kg
- Adipose tissue (%) Day 56 [2, 7]: 22.90%
- Bone mineral content (%) Day 56 [2, 7]: 3.01%
- Lean tissue (%) Day 56 [2, 7]: 72.64%
- adipose tissue at day 21, pooled data [2, 8]: 19.24%
- percentage of lean tissue at day 21, pooled data [2, 8]: 76.83%
- Adipose tissue (%) Day 21 [2, 9]: 19.18%
- Bone mineral content (%) Day 21 [2, 9]: 2.95%
- Lean tissue (%) Day 21 [2, 9]: 76.84%
- Feed efficiency for lean tissue deposition (kg lean tissue gain: kg feed intake) Day 21-56 [2, 4]: 0.073 kg lean tissue gain: kg feed intake
